This passage reports TGI and GI50 results from PubChem BioAssay (NCI).

What all share (assay): NCI-60 cell line screen, 48 h
Experiment [1] has as its system CCRF-CEM leukemia.
For experiment [2], the system named is HOP-62 NSCLC.
The test system of experiment [3] is ACHN renal.
Experiment [4] relates to UO-31 renal.
The subject of experiment [5] is SW-620 colon.
For experiment [6], the system named is CAKI-1 renal.
Experiment [7] relates to RPMI-8226 leukemia.
Experiment [8] deals with SF-539 CNS.
Experiment [9] relates to UACC-257 melanoma.
Experiment [10] relates to HS 578T breast.

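Method: 48-hour compound exposure of cells in 96-well plates, five concentrations, linear interpolation of endpoints. Here, GI50 denotes the concentration required for 50% inhibition of growth. TGI is the concentration that stops growth completely.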 Bounds are passed on as bounds.

As to `COc1c2c(c3ccccc3c1O)C1C=CC2C1` (centres undefined), the TGI in [1] amounted to 97.6 µM; in experiment [2] it was 29.7 µM; in experiment [3], 27.5 µM; in experiment [4] it was 17.6 µM; in experiment [5] it was 34.3 µM; in experiment [6], 30.8 µM. Also, the TGI in experiment [7] is > 100 µM; in experiment [8] it was 29 µM.

`Cc1ccc(C2=C(C#N)C(N)OC3=C2COc2ccccc23)cc1` (centres undefined): the TGI in experiment [1] was 76 µM; in [2] it was 34.9 µM; in experiment [3], > 100 µM; in [4] it was 33.7 µM; in [9], > 100 µM; in experiment [5] it was > 100 µM. For the same compound, the TGI in experiment [7] and in experiment [8] was > 100 µM throughout.

For `CC(=O)Nc1ccc2[nH]c(C(=O)N3CC(CCl)c4c3cc([N+](=O)[O-])c3ccccc43)cc2c1` (centres undefined), the TGI in experiment [1] is 29 µM; in experiment [3], > 100 µM; in [10], > 95 µM; in experiment [9], > 100 µM; in experiment [5] it was > 100 µM; in experiment [6] it was > 29.9 µM. Besides, the TGI in experiment [7] was > 27.8 µM.

Regarding `Clc1ccc(-c2cn3c(nc4ccccc43)c(/C=C/c3ccco3)n2)cc1`, the TGI was > 100 µM in experiment [2]; > 100 µM in experiment [3]; > 100 µM in experiment [4]; 61.8 µM in experiment [10]; > 100 µM in [9]; > 100 µM in experiment [5]. The TGI in experiment [7] is 39.8 µM; in experiment [8], > 100 µM.

Turning to `COc1c(-c2nc3nc(N4CCN(C)CC4)ccc3[nH]2)cc(OC)c2c1nc(COC(C)=O)n2C`, the TGI in experiment [2], in experiment [3], in [4], in experiment [10], in experiment [9] and in [6] was > 100 µM in each case.

For `O=C(/C=C/c1cccc(Oc2ccccc2)c1)NCc1ccc(C(=O)NCCc2ccccc2)cc1`, the TGI in experiment [2], in [3], in experiment [4], in [10], in [9] and in experiment [5] was > 100 µM throughout. Further, the TGI in experiment [6], in experiment [7] and in experiment [8] was > 100 µM throughout.

For `CC(=O)NC(C)(C)C1CCC(C)=C(c2ccccc2)C1` (centres undefined), the TGI in experiment [1], in experiment [2], in experiment [4], in experiment [9], in [5] and in [8] was > 100 µM in each case.

In the case of `CC(C)=CCc1[nH]c2ccccc2c1C1=C(O)C(=O)C(c2c(CC=C(C)C)[nH]c3ccccc23)=C(O)C1=O`, the TGI in experiment [1] amounted to 6.83 µM; in experiment [2], 2.61 µM; in [3], 3.95 µM; in [4], 3.14 µM; in [10], 73.8 µM; in experiment [9], 6.95 µM. In addition, the values for the TGI in experiment [5] and in [6] were 14.9 µM and 6.26 µM, respectively.

On to `S=c1[nH]n2c(CCCCCCCCc3nnc4sc(=S)[nH]n34)nnc2s1`, for which the TGI in experiment [1], in [2], in [3], in experiment [4], in experiment [9] and in experiment [5] was > 100 µM throughout. The TGI in [6], in experiment [7] and in experiment [8] was > 100 µM in each case.

Turning to `CCOC(=O)C(Cc1ccc(OC(=O)OC(C)(C)C)cc1)NC(=O)OC(C)(C)C` (centres undefined), the TGI in experiment [1] was > 100 µM; in experiment [2] it was > 100 µM; in experiment [3], > 100 µM; in [4], > 100 µM; in [10], > 100 µM; in experiment [9], 54.3 µM. Further, the TGI in [5], in [6] and in [8] was > 100 µM in each case.

As for `O=C(c1ccccc1)C1S(=O)(=O)OCCOS1(=O)=O`, the TGI in experiment [1], in [2], in [4], in experiment [9], in [5] and in experiment [6] was > 100 µM throughout. The TGI in [7] and in [8] was > 100 µM in each case.

Regarding `CCN(CC)CCN1C(=O)c2c(c3c4ccccc4[nH]c3c3ccc4ccccc4c23)C1=O`, the GI50 was 1.54 µM in [3]; 1.36 µM in [4]; 1.73 µM in [9]; 1.31 µM in [5]; 1.43 µM in experiment [6]; 2.01 µM in [7]. Also, the GI50 in experiment [8] is 1.7 µM. For the same compound, the TGI was found to be 2.87 µM in experiment [3]; 2.66 µM in experiment [4]; 3.27 µM in experiment [9]; 2.97 µM in experiment [5]; 2.87 µM in [6]; 5.65 µM in experiment [7]. In experiment [8], this compound yielded a TGI of 3.08 µM.

As to `CSc1ccn(C2CC(F)C(CO)O2)c(=O)n1` (centres undefined), the TGI in experiment [1], in [2], in experiment [3], in [4], in [10] and in experiment [9] was > 100 µM in each case. Besides, the TGI in experiment [5], in experiment [6] and in experiment [8] was > 100 µM each time.

For `O=C1/C=C(/c2ccc(O)cc2)[C@@H](O)Cc2ccc(O)cc2O1`, the TGI in experiment [2], in experiment [3], in experiment [4], in experiment [9], in experiment [5] and in experiment [6] was > 100 µM each time. Besides, the TGI in [8] is > 100 µM.

With `CCOC(=O)C(Cc1c[nH]c2cc([N+](=O)[O-])ccc12)NS(=O)(=O)c1ccc2ccccc2c1` (centres undefined), the TGI in experiment [1] stood at 49.1 µM; in [2], 31.4 µM; in [3], 57.9 µM; in experiment [4], 63.5 µM; in experiment [9] it was 28.8 µM; in experiment [5], 44.4 µM. Further, the TGI is > 100 µM in experiment [7] and 32.9 µM in [8].
